Consider two compounds from article PMC4026539, “Improved Photodynamic Efficacy of Zn(II) Phthalocyanines via Glycerol Substitution” (PLoS ONE, 2014).

On the set-up of data set [1]: method as in PMID 11883602. The note with it: in alcohol; reference standard; cited from earlier work.
In a further data set the test system is HSC-2 cells. Put plainly: Cellular uptake study by flow cytometry. The format is cell-based, human. Conditions: 10 µM. The protocol: HSC-2 cells were plated overnight in 6-well plates (1×10^5 cells/well) in MEM media. Cells were incubated with 10 µM of phthalocyanine 1, 2, 3 or ZnPcS4 for various time intervals. Following incubation, cells were washed twice with PBS, collected by trypsinization and resuspended in phenol red-free MEM media. The mean fluorescence signal for 10 000 cells were analyzed using FACSCalibur flow cytometer (Becton Dickinson, NJ) with FL4 channel (excitation 635 nm, bandpass filter 661/16 nm) and data collected were translated into relative concentration using the formula F = k * QE * Po * (2.303 *ε * b * c). All assays were performed in triplicates. F = measured fluorescence intensity, k = geometric instrumental factor, QE = quantum efficiency (ratio of photons being emitted to photons being absorbed) and Po = radiant power of the excitation source (wavelength-dependent molar absorptivity coefficient). b and c are as being used in the Beer-Lambert law, where b = path length, and c = concentration of the analyte.
A general note: A flow cytometer gives signals particle by particle.

The nature of data set [2]: UV-visible absorption spectra in different solvents. Format: physicochemical. More on the design: λmax: unit not given beside the values. The note with it: 10 µM. On the procedure:
The UV-visible (10 µM) and fluorescence emission spectra (5 µM) of phthalocyanines in different solvents were measured using SpectraMax M4 microplate reader (Molecular Devices, CA). UV-visible spectra were collected for wavelengths ranging from 350–800 nm and molar extinction coefficient (ε) for each compound was determined. Meanwhile, the fluorescence emission spectra of the compounds were recorded at 650–800 nm following excitation at their respective maximal absorption (λmax). The fluorescence quantum yields (φF) were calculated by using the following formula: φF = φFstd (F×Astd)/[…] where, F and Fstd refer to the area under the fluorescence curve of sample and standard, respectively. A and Astd refer to the absorbance of sample and standard compound at their excitation wavelengths respectively. ZnPcS4 with φFstd = 0.07 (DMSO) was used as reference.

Data set [3] deals with HSC-2 human oral squamous carcinoma cell line. Nature of the data set: In vitro phototoxicity assay (MTT). Conditions: 2 h incubation, MTT after 48 h. The format is cell-based. The protocol:
(§1) MCF-7 human breast carcinoma and HCT-116 cells human colon carcinoma cell lines were obtained from American Tissue Culture Collection (Virginia, USA), whereas HSC-2 human oral squamous carcinoma cell line was purchased from Health Science Research Resources Bank, (Osaka, Japan). Approximately 3000–4000 cells/well were seeded in 96-well plate and incubated overnight for cell adherence and growth. Cells were then treated with phthalocyanines 1, 2, 3 or ZnPcS4 with concentrations ranging from 0.01 to 100 µM and were incubated for 2 h before irradiated with 4.0 J/cm^2 of light filtered with Roscolux #26 Light Red (>580 nm) (Rosco, NY) membrane filter at a fluence rate of 7.5 mW/cm^2 for 10 min. Illumination was performed in the presence of photosensitizer in the media. The cells were further incubated for 48 h before cell viability was assessed by the MTT assay. For MTT assay, 20 µl of MTT solution (5 mg/ml) were added to each well and incubated for 4 h. The medium was removed and replaced with 100 µl of DMSO to dissolve the formazan crystal formed and the absorbance was read at 570 nm with a microplate reader. The percentage of cell viability was determined relative to untreated control and the half maximal inhibitory concentration (IC50) values were determined. Dark toxicity for each phthalocyanine was also determined in parallel.

In data set [4] the test system is HCT-116 cells human colon carcinoma. Put plainly: In vitro phototoxicity assay (MTT). Format: cell-based. Conditions: 2 h incubation, MTT after 48 h. The protocol:
as §1

For data set [5], the system named is MCF-7 human breast carcinoma. Nature of the data set: In vitro phototoxicity assay (MTT). The format is cell-based. Conditions: 2 h incubation, MTT after 48 h. The protocol: as §1
Data set [6] in a line: Log P partition coefficient, shake-flask method. Format: physicochemical. Conditions: Octanol-1/H2O, room temperature. On the procedure: Phthalocyanines were prepared in presaturated Octanol-1 (Oct) or H2O depending on their solubility (ZnPcS4, phthalocyanines 1 and 2 in H2O; phthalocyanine 3 in Oct) with concentrations ranging from 1–20 µM. […] The glass tube was left to stand for 1–2 h at room temperature. The absorbance of the phthalocyanine was measured before addition of the other solvent and also after incubation. To obtain log P value, calculations were done using the formula: log P = log [COct/CH2O] where, COct and CH2O represent concentrations of phthalocyanine in Oct and H2O, respectively. Partition coefficient (log P) is defined as the ratio of concentrations of a dissolved substance in a two-phase system consisting of two immiscible solvents e.g. n-octanol and water at equilibrium. It reflects the level of hydrophilicity and hydrophobicity of a compound, which determines the permeability of the compound across the lipid bilayers of cell membrane. In this study, the log P values of the phthalocyanines were measured using the shake-flask method.

A further data set concerns CAM vasculature. Put plainly: PDT-induced vascular occlusion in CAM model. Format: in vivo, Lohmann Brown chicken. Conditions: for Occlusion score: 10 nmol/embryo i.v., mean ± SEM of ten embryos, scale of Table 1. On the procedure: Freshly fertilized eggs from Lohmann Brown chicken variety (Hong Hing Sdn. Bhd, Selangor, Malaysia) were incubated with the narrow apex down in a 90° swinging Octagon 40DX incubator (Brinsea Products Inc., Standford, England) at 37°C and 65% relative humidity. On embryo development day (EDD) three, an eggshell opening of about 4 mm in diameter was bored at the apex and sealed with adhesive tape to avoid contamination and desiccation of the egg contents. The eggs were further incubated in stationary position with the apex upright until ready for use at EDD-9.
For vascular occlusion study, the egg opening was extended to ∼30 mm in diameter on EDD-9. Embryos were intravenously administered with a single bolus of 10 nmol/embryo of phthalocyanine in dosing vehicle (5% CrEL, 5% EtOH in saline) at the CAM main vasculature. One min after injection, a site with blood vessel diameter between 5–100 µm was irradiated with a light dose of 5 J/cm^2 or 10 J/cm^2. Irradiation was performed with light of 600–800 nm wavelength with a fluence rate of 11.5 mW/cm^2 over an irradiation area of 1.13 mm^2. Fluorescence angiograms were performed immediately to assess the PDT-induced vasculature damage. Blood vessels were perfused with 20 µl of 25 mg/ml FITC-dextran followed by injection of Indian ink into the extra-embryonic cavity to decrease the embryo’s interfering fluorescence from deeper located vessels. The vasculature network at the site of irradiation was illuminated by exciting FITC at 465–496 nm wavelengths on the fluorescence microscope. The vasculature network was imaged and the extent of damage induced by PDT was scored using a previously defined arbitrary damage scale from 1 to 5 as listed in Table 1 [26]. Generally, the damage on smaller vessels would have lower score whereas the damage on larger blood vessels would have higher score, depending on the size and degree of damage that was caused. At least 10 embryos were assessed for each treatment group.

Details of data set [7]: method as in earlier work. The note with it: in DMSO; reference standard value; cited from earlier work.
For data set [8], the system named is MCF-7, HCT-116 and HSC-2 cancer cell-lines. Nature of the data set: In vitro phototoxicity assay (MTT), panel of cancer cell lines. The format is cell-based, human. The note with it: 4.0 J/cm^2. The protocol:
as §1, with “Cells were then treated with phthalocyanines 1, 2, 3 or ZnPcS4 with concentrations ranging from 0.01 to 100 µM and were incubated for 2 h before irradiated with 4.0 J/cm^2 of light filtered with Roscolux #26 Light Red (>580 nm) (Rosco, NY) membrane filter at a fluence rate of 7.5 mW/cm^2 for 10 min.” left out

Consider `C=Cc1c(C)c2cc3nc(c4c5[nH]c(cc6nc(cc1[nH]2)C(C)=C6CC)c(C)c5C(=O)[C@@H]4C(=O)OC)[C@@H](CCC(=O)O)[C@@H]3C` [Pha, pheophorbide a], for which the “singlet oxygen quantum yield” value in [1] is recorded as 0.52.
In general, IC50 refers to the concentration needed to halve the response being measured. As usually defined, the log P is the decadic logarithm of the partition coefficient of the neutral form, usually between octanol and water. As to “tetrasulfonated zinc (II) phthalocyanine [ZnPcS4]”, the “cellular uptake (in words)” value in the data set with HSC-2 cells is “poorly taken up by cells”. The ε in data set [2] (DMSO) is reported as 114 000 M^−1cm^−1; in [2] (Ethanol) it was 27 000 M^−1cm^−1; in data set [2] (PBS+2% Triton x-100), 20 000 M^−1cm^−1; in data set [2] (PBS), 23 000 M^−1cm^−1. For the same compound, the λmax was determined as 676 in [2] (DMSO), 666 in data set [2] (Ethanol), 606 in data set [2] (PBS+2% Triton x-100) and 606 in data set [2] (PBS). The IC50 in [3] (0 J/cm^2 (dark toxicity)), in data set [3] (4.0 J/cm^2 (>580 nm)), in [4] (0 J/cm^2 (dark toxicity)), in [4] (4.0 J/cm^2 (>580 nm)), in [5] (0 J/cm^2 (dark toxicity)) and in data set [5] (4.0 J/cm^2 (>580 nm)) was over 100 µM in each case. In addition, the “log P” value in [6] is listed as −1.7±0.4. Besides, the Occlusion score was determined as 0 ± 0.0 in the data set on CAM vasculature (5 J/cm^2, 600–800 nm) and 0 ± 0.2 with CAM vasculature (10 J/cm^2, 600–800 nm). The “vascular occlusion effect (in words)” value in the data set on CAM vasculature (10 nmol/embryo, 5 J/cm^2) is “failed to demonstrate vascular occlusion effects”; in the data set on CAM vasculature (similar experimental conditions, light dose not stated at the place (abstract)) it was “no detectable vascular occlusion”. Moreover, the “φF (fluorescence quantum yield)” value in data set [7] was 0.07. In addition, the “phototoxicity IC50, range over MCF-7, HCT-116 and HSC-2” value in data set [8] (tested up to 100 µM) is reported as “failed to yield determinable IC50 values”. For the same compound, in data set [8] (treatment concentrations of up to 100 µM), the “loss of cell viability” value is listed as “no significant loss of cell viability”.
